Source: US20170190671A1, “BIS(ARYL)CATECHOL DERIVATIVES AS HERBICIDES” (E I DU PONT DE NEMOURS AND COMPANY, priority 2014, published 2017)

What was measured:
Type in all cases: in vivo
[1] = test system: ragweed (common ragweed, Ambrosia elatior); assay: Test A postemergence; settings: Ambrosia artemisiifolia, post-emergence, 240 h, 1000 g ai/ha, 0 to 100 scale, read-out: Plant response rating, Ragweed
Procedure, shortened: (§1)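 Greenhouse pot test, loam/sand soil. Formulation: non-phytotoxic solvent mix plus surfactant. Pre: directed spray onto soil after sowing. Post: plants at 1–2 leaf, 2–10 cm. Rated visually vs untreated controls at ~10 d, 0 (no effect) to 100 (complete control).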

[2] = test system: wheat (Triticum aestivum); assay: Test A postemergence; settings: Triticum aestivum, post-emergence, 240 h, 1000 g ai/ha, 0 to 100 scale, read-out: Plant response rating, Wheat
Procedure, shortened: as §1

corn (Zea mays) = assay: Test A postemergence; settings: Zea mays, post-emergence, 240 h, 1000 g ai/ha, 0 to 100 scale
Procedure, shortened: as §1

[3] = test system: Italian ryegrass (Lolium multiflorum); assay: Test A postemergence; settings: Lolium multiflorum, post-emergence, 240 h, 1000 g ai/ha, 0 to 100 scale, read-out: Plant response rating, Ryegrass, Italian
Procedure, shortened: as §1

[4] = test system: giant foxtail (Setaria faberii); assay: Test A postemergence; settings: Setaria faberi, post-emergence, 240 h, 1000 g ai/ha, 0 to 100 scale, read-out: Plant response rating, Foxtail, Giant
Procedure, shortened: as §1

[5] = test system: barnyardgrass (Echinochloa crus-galli); assay: Test A postemergence; settings: Echinochloa crus-galli, post-emergence, 240 h, 1000 g ai/ha, 0 to 100 scale, 0 no effect, 100 complete control, read-out: Plant response rating, Barnyardgrass
Procedure, shortened: as §1

[6] = test system: galium (catchweed bedstraw, Galium aparine); assay: Test A postemergence; settings: Galium, post-emergence, 240 h, 1000 g ai/ha, 0 to 100 scale, read-out: Plant response rating, Galium
Procedure, shortened: as §1

[7] = test system: blackgrass (Alopecurus myosuroides); assay: Test A postemergence; settings: Alopecurus myosuroides, post-emergence, 240 h, 1000 g ai/ha, 0 to 100 scale, read-out: Plant response rating, Blackgrass
Procedure, shortened: as §1

[8] = test system: pigweed (Amaranthus retroflexus); assay: Test A postemergence; settings: Amaranthus retroflexus, post-emergence, 240 h, 1000 g ai/ha, 0 to 100 scale, read-out: Plant response rating, Pigweed
Procedure, shortened: as §1

kochia (Kochia scoparia) [9] = assay: Test A postemergence; settings: Bassia scoparia, post-emergence, 240 h, 1000 g ai/ha, 0 to 100 scale, read-out: Plant response rating, Kochia
Procedure, shortened: as §1

[10] = test system: pigweed (Amaranthus retroflexus); assay: Test C postemergence; settings: Amaranthus retroflexus, post-emergence, 336 h, Postemergence, scale 0 to 100, read-out: Plant response rating, Pigweed
Procedure, shortened: (§2)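 Seeds sown in a loam soil and sand blend were treated preemergence; plants in peat-moss/vermiculite medium were sprayed at the 1- to 4-leaf stage (2-18 cm). Chemicals were in a non-phytotoxic surfactant-containing solvent. After 13 to 15 days in a greenhouse, injury was visually rated against controls on a 0-100 scale.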

kochia (Kochia scoparia) [11] = assay: Test C postemergence; settings: Bassia scoparia, post-emergence, Postemergence, scale 0 to 100, read-out: Plant response rating, Kochia
Procedure, shortened: as §2

[12] = test system: ragweed (common ragweed, Ambrosia elatior); assay: Test A preemergence; settings: Ambrosia artemisiifolia, pre-emergence, 240 h, 1000 g ai/ha, 0 to 100 scale, read-out: Plant response rating, Ragweed
Procedure, shortened: as §1

[13] = test system: Italian ryegrass (Lolium multiflorum); assay: Test A preemergence; settings: Lolium multiflorum, pre-emergence, 240 h, 1000 g ai/ha, 0 to 100 scale, read-out: Plant response rating, Ryegrass, Italian
Procedure, shortened: as §1

[14] = test system: giant foxtail (Setaria faberii); assay: Test A preemergence; settings: Setaria faberi, pre-emergence, 240 h, 1000 g ai/ha, 0 to 100 scale, read-out: Plant response rating, Foxtail, Giant
Procedure, shortened: as §1

[15] = test system: barnyardgrass (Echinochloa crus-galli); assay: Test A preemergence; settings: Echinochloa crus-galli, pre-emergence, 240 h, 1000 g ai/ha, 0 to 100 scale, read-out: Plant response rating, Barnyardgrass
Procedure, shortened: as §1

[16] = test system: pigweed (Amaranthus retroflexus); assay: Test A preemergence; settings: Amaranthus retroflexus, pre-emergence, 240 h, 1000 g ai/ha, 0 to 100 scale, read-out: Plant response rating, Pigweed
Procedure, shortened: as §1

kochia (Kochia scoparia) [17] = assay: Test A preemergence; settings: Bassia scoparia, pre-emergence, 240 h, 1000 g ai/ha, 0 to 100 scale, read-out: Plant response rating, Kochia
Procedure, shortened: as §1

[18] = test system: ducksalad (Heteranthera limosa); assay: Test B flooded paddy; settings: Heteranthera limosa, 336 h; 250 g ai/ha, Flood, 13 to 15 days, scale 0 (no effect) to 100 (complete control); read-out: Plant response rating, Ducksalad
Procedure, shortened: (§3)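 Visual injury ratings against untreated controls, taken 13 to 15 days after compound was added to paddy water standing 3 cm above the soil.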

[19] = test system: barnyardgrass (Echinochloa crus-galli); assay: Test B flooded paddy; settings: Echinochloa crus-galli, 336 h; 250 g ai/ha, Flood, 13 to 15 days, scale 0 (no effect) to 100 (complete control); read-out: Plant response rating, Barnyardgrass
Procedure, shortened: as §3

[20] = test system: sedge, umbrella (small-flower umbrella sedge, Cyperus difformis); assay: Test B flooded paddy; settings: Cyperus difformis, 336 h; 250 g ai/ha, Flood, 13 to 15 days, scale 0 (no effect) to 100 (complete control); read-out: Plant response rating, Sedge, Umbrella
Procedure, shortened: as §3

rice (Oryza sativa) = assay: Test B flooded paddy; settings: Oryza sativa, 336 h; 250 g ai/ha, Flood, 13 to 15 days, scale 0 (no effect) to 100 (complete control); read-out: Plant response rating, Rice
Procedure, shortened: as §3

SMILES: Fc1cnc(Oc2c(Cl)cccc2Oc2ncc(Cl)cn2)nc1 [Compound 18, 5-chloro-2-[5-chloro-6-[(5-fluoro-2-pyrimidinyl)oxy]phenoxy]pyrimidine]
- pest or weed control at 1000 g/ha [1]: 20%
- plant injury at 1000 g/ha [2]: 50%
- Corn plant response rating (crop injury, 0 = no effect, 100 = complete kill) at 1000 g/ha (corn (Zea mays)): 50%
- pest or weed control at 1000 g/ha [3]: 100%
- pest or weed control at 1000 g/ha [4]: 100%
- pest or weed control at 1000 g/ha [5]: 80%
- pest or weed control at 1000 g/ha [6]: 100%
- pest or weed control at 1000 g/ha [7]: 100%
- pest or weed control at 1000 g/ha [8]: 100%
- pest or weed control at 1000 g/ha (kochia (Kochia scoparia) [9]): 100%
- pest or weed control at 31 g/ha ([10]; 31 g ai/ha): 80%
- pest or weed control at 62 g/ha ([10]; 62 g ai/ha): 90%
- pest or weed control at 125 g/ha ([10]; 125 g ai/ha): 95%
- pest or weed control at 250 g/ha ([10]; 250 g ai/ha): 98%
- pest or weed control at 31 g/ha (kochia (Kochia scoparia) [11]; 31 g ai/ha): 30%
- pest or weed control at 62 g/ha (kochia (Kochia scoparia) [11]; 62 g ai/ha): 50%
- pest or weed control at 125 g/ha (kochia (Kochia scoparia) [11]; 125 g ai/ha): 85%
- pest or weed control at 250 g/ha (kochia (Kochia scoparia) [11]; 250 g ai/ha): 95%
- pest or weed control at 1000 g/ha [12]: 30%
- pest or weed control at 1000 g/ha [13]: 70%
- pest or weed control at 1000 g/ha [14]: 100%
- pest or weed control at 1000 g/ha [15]: 100%
- pest or weed control at 1000 g/ha [16]: 100%
- pest or weed control at 1000 g/ha (kochia (Kochia scoparia) [17]): 100%
- pest or weed control at 250 g/ha [18]: 100%
- pest or weed control at 250 g/ha [19]: 50%
- pest or weed control at 250 g/ha [20]: 100%
- plant injury at 250 g/ha (rice (Oryza sativa)): 80%
